# Measurements taken from US7132425B2, “5-substituted-six-membered heteroaromatic glucokinase activators” (Hoffmann-La Roche Inc., priority 2002, dated 2006).
# How the values were obtained:
# [1] = test system: C57BL/6J mice; assay: Glucokinase activator in vivo screen (blood glucose after oral dosing); conditions: oral gavage 50 mg/kg after two hour fast, readings 1, 2, 4 and 6 hours post dose, p≦0.05 for two consecutive assay time points
# Protocol: Glucokinase Activator in vivo Screen Protocol: C57BL/6J mice are orally dosed via gavage with Glucokinase (GK) activator at 50 mg/kg body weight following a two hour fasting period. Blood glucose determinations are made five times during the six hour post-dose study period.
# Mice (n=6) are weighed and fasted for a two hour period prior to oral treatment.
Structure (SMILES),melting point,decrease in blood glucose compared to vehicle [1]
"CSCc1cnc(NC(=O)C(CC2CCCC2)c2ccc(S(C)(=O)=O)c(Cl)c2)cn1 (centres unmarked) [Example 30, 2-(3-Chloro-4-methanesulfonyl-phenyl)-3-cyclopentyl-N-(5-methylsulfanylmethyl-pyrazin-2-yl)-propionamide]",70 to 75 °C,–
"CS(=O)(=O)c1ccc(C(CC2CCCC2)C(=O)Nc2cnc(/C(C#N)=N\O)cn2)cc1Cl (centres unmarked) [Example 37, 2-(3-Chloro-4-methanesulfonyl-phenyl)-N-[5-(cyano-hydroxyimino-methyl)-pyrazin-2-yl]-3-cyclopentyl-propionamide]",130 to 133 °C,–
"CS(=O)(=O)c1ccc([C@@H](CC2CCCC2)C(=O)Nc2cnc(-c3ccsc3)cn2)cc1Cl [Example 77, 2(R)-(3-Chloro-4-methanesulfonyl-phenyl)-3-cyclopentyl-N-(5-thiophen-3-yl-pyrazin-2-yl)-propionamide]",96 to 102 °C,–
"Cc1noc(-c2cnc(NC(=O)[C@H](CC3CCCC3)c3ccc(S(C)(=O)=O)c(Cl)c3)cn2)n1 [Example 35, 2(R)-(3-Chloro-4-methanesulfonyl-phenyl)-3-cyclopentyl-N-[5-(3-methyl-[1,2,4]oxadiazol-5-yl)-pyrazin-2-yl]-propionamide]",101 to 105 °C,–
"CS(=O)(=O)c1ccc([C@@H](CC2CCCC2)C(=O)Nc2cnc(-c3ccc(C#N)s3)cn2)cc1Cl [Example 79, 2(R)-(3-Chloro-4-methanesulfonyl-phenyl)-N-[5-(5-cyano-thiophen-2-yl)-pyrazin-2-yl]-3-cyclopentyl-propionamide]",101 to 107 °C,–
"C[S+]([O-])Cc1cnc(NC(=O)[C@H](CC2CCCC2)c2ccc(S(C)(=O)=O)c(Cl)c2)cn1 (stereo partly drawn) [Example 38, 2(R)-(3-Chloro-4-methanesulfonyl-phenyl)-3-cyclopentyl-N-(5-methanesulfinylmethyl-pyrazin-2-yl)-propionamide]",102 to 106 °C,–
"CS(=O)(=O)c1ccc([C@@H](CC2CCCC2)C(=O)Nc2cnc(C[C@H](O)CO)cn2)cc1Cl [Example 81, 2(R)-(3-Chloro-4-methanesulfonyl-phenyl)-3-cyclopentyl-N-[5-(2(S),3-dihydroxy-propyl)-pyrazin-2-yl]-propionamide]",61 to 65 °C,–
"CSCc1cnc(NC(=O)[C@H](CC2CCCC2)c2ccc(S(C)(=O)=O)c(Cl)c2)cn1 [Example 36, 2(R)-(3-Chloro-4-methanesulfonyl-phenyl)-3-cyclopentyl-N-(5-methylsulfanylmethyl-pyrazin-2-yl)-propionamide]",75 to 76.7 °C,–
"CSc1cnc(NC(=O)[C@H](CC2CCCC2)c2ccc(S(C)(=O)=O)cc2)cn1 [Example 5, 3-Cyclopentyl-2(R)-(4-methanesulfonyl-phenyl)-N-(5-methylsulfanyl-pyrazin-2-yl)-propionamide]",71 to 77 °C,–
"CS(=O)(=O)c1ccc([C@@H](CC2CCCC2)C(=O)Nc2cnc(C#CCCO)cn2)cc1Cl [Example 53, 2(R)-(3-Chloro-4-methanesulfonyl-phenyl)-3-cyclopentyl-N-[5-(4-hydroxy-but-1-ynyl)-pyrazin-2-yl]-propionamide]",–,statistically significant (p≦0.05) decrease in blood glucose
"CS(=O)(=O)c1ccc(C(CC2CCCC2)C(=O)Nc2cnc(C=O)cn2)cc1Cl (centres unmarked) [Example 18, 2-(3-Chloro-4-methanesulfonyl-phenyl)-3-cyclopentyl-N-(5-formyl-pyrazin-2-yl)-propionamide]",–,statistically significant (p≦0.05) decrease in blood glucose
CS(=O)(=O)c1ccc([C@@H](CC2CCCC2)C(=O)Nc2cnc([C@@H](O)CO)cn2)cc1Cl [Example 55],–,statistically significant (p≦0.05) decrease in blood glucose
"CN(C)CCCc1cnc(NC(=O)[C@H](CC2CCCC2)c2ccc(S(C)(=O)=O)c(Cl)c2)cn1 [Example 16, 2(R)-(3-Chloro-4-methanesulfonyl-phenyl)-3-cyclopentyl-N-[5-(3-dimethylamino-propyl)-pyrazin-2-yl]-propionamide]",–,statistically significant (p≦0.05) decrease in blood glucose
"CS(=O)(=O)c1ccc([C@@H](CC2CCCC2)C(=O)Nc2cnc(C[C@@H](O)CO)cn2)cc1Cl [Example 82, 2(R)-(3-chloro-4-methanesulfonyl-phenyl)-3-cyclopentyl-N-[5-(2(R),3-dihydroxy-propyl)-pyrazin-2-yl]-propionamide]",64 to 69 °C,–
"CN(C)Cc1cnc(NC(=O)[C@H](CC2CCCC2)c2ccc(S(C)(=O)=O)c(Cl)c2)cn1 [Example 32, 2(R)-(3-Chloro-4-methanesulfonyl-phenyl)-3-cyclopentyl-N-(5-dimethylaminomethyl-pyrazin-2-yl)-propionamide]",88 to 91.5 °C,–
"CS(=O)(=O)c1ccc([C@@H](CC2CCCC2)C(=O)Nc2cnc(C#CC3(O)CCOCC3)cn2)cc1 [Example 46, 3-Cyclopentyl-N-5-[(4-hydroxy-tetrahydropyran-4-yl-ethynyl)pyrazin-2-yl]-2(R)-(4-methanesulfonyl-phenyl)-propionamide]",–,statistically significant (p≦0.05) decrease in blood glucose
"CS(=O)(=O)c1ccc([C@@H](CC2CCCC2)C(=O)Nc2cnc(OCCO)cn2)cc1Cl [Example 62, 2(R)-(3-Chloro-4-methanesulfonyl-phenyl)-3-cyclopentyl-N-[5-(2-hydroxy-ethoxy)-pyrazin-2-yl]-propionamide]",–,statistically significant (p≦0.05) decrease in blood glucose
"CS(=O)(=O)c1ccc([C@@H](CC2CCCC2)C(=O)Nc2cnc(NCCO)cn2)cc1Cl [Example 73, 2(R)-(3-Chloro-4-methanesulfonyl-phenyl)-3-cyclopentyl-N-[5-(2-hydroxy-ethylamino)-pyrazin-2-yl]-propionamide]",–,statistically significant (p≦0.05) decrease in blood glucose
"CC(C)(O)C#Cc1cnc(NC(=O)[C@H](CC2CCCC2)c2ccc(S(C)(=O)=O)cc2)cn1 [Example 61, 3-Cyclopentyl-2(R)-(4-methanesulfonyl-phenyl)-N-[5-(3-hydroxy-3-methyl-but-1-ynyl)-pyrazin-2-yl]-propionamide]",–,statistically significant (p≦0.05) decrease in blood glucose
"CN(C)S(=O)(=O)c1cnc(NC(=O)[C@H](CC2CCCC2)c2ccc(S(C)(=O)=O)c(Cl)c2)cn1 [Example 9, 2(R)-(3-Chloro-4-methanesulfonyl-phenyl)-3-cyclopentyl-N-(5-dimethylsulfamoyl-pyrazin-2-yl)-propionamide]",100.2 °C,–
"COCC#Cc1cnc(NC(=O)[C@H](CC2CCCC2)c2ccc(S(C)(=O)=O)c(Cl)c2)cn1 [Example 47, 2(R)-(3-Chloro-4-methanesulfonyl-phenyl)-3-cyclopentyl-N-[5-(3-methoxy-prop-1-ynyl)-pyrazin-2-yl]-propionamide]",–,statistically significant (p≦0.05) decrease in blood glucose
"Cc1cc([C@@H](CC2CCCC2)C(=O)Nc2cnc(C#CC(C)(C)O)cn2)ccc1S(C)(=O)=O [Example 57, 3-Cyclopentyl-N-[5-(3-hydroxy-3-methyl-but-1-ynyl)-pyrazin-2-yl]-2(R)-(4-methanesulfonyl-3-methyl-phenyl)-propionamide]",–,statistically significant (p≦0.05) decrease in blood glucose
"CS(=O)(=O)Nc1cnc(NC(=O)[C@H](CC2CCCC2)c2ccc(S(C)(=O)=O)c(Cl)c2)cn1 [Example 13, 2(R)-(3-Chloro-4-methanesulfonyl-phenyl)-3-cyclopentyl-N-(5-methanesulfonylamino-pyrazin-2-yl)-propionamide]",108 to 110 °C,–
"CS(=O)(=O)c1ccc([C@@H](CC2CCCC2)C(=O)Nc2cnc(C#CCO)cn2)cc1Cl [Example 10, 2(R)-(3-Chloro-4-methanesulfonyl-phenyl)-3-cyclopentyl-N-[5-(3-hydroxy-prop-1-ynyl)-pyrazin-2-yl]-propionamide]",–,statistically significant (p≦0.05) decrease in blood glucose
"CS(=O)(=O)c1ccc([C@@H](CC2CCCC2)C(=O)Nc2cnc(C(CO)CO)cn2)cc1Cl [Example 40, 2(R)-(3-Chloro-4-methanesulfonyl-phenyl)-3-cyclopentyl-N-[5-(2-hydroxy-1-hydroxymethyl-ethyl)-pyrazin-2-yl]-propionamide]",110 to 120 °C,–
"CS(=O)(=O)c1ccc([C@@H](CC2CCCC2)C(=O)Nc2cnc(CCC3(O)CCOCC3)cn2)cc1Cl [Example 51, 2(R)-(3-Chloro-4-methanesulfonyl-phenyl)-3-cyclopentyl-N-[5-(4-hydroxy-tetrahydropyran-4-yl-ethyl)-pyrazin-2-yl]-propionamide]",–,statistically significant (p≦0.05) decrease in blood glucose
"CS(=O)(=O)c1ccc([C@@H](CC2CCCC2)C(=O)Nc2cnc([C@H](O)CO)cn2)cc1Cl [Example 54, 2(R)-(3-Chloro-4-methanesulfonyl-phenyl)-3-cyclopentyl-N-[5-(1(S),2-dihydroxy-ethyl)-pyrazin-2-yl]-propionamide]",–,statistically significant (p≦0.05) decrease in blood glucose
"CS(=O)(=O)c1ccc([C@@H](CC2CCCC2)C(=O)Nc2cnc(C3=CCCCO3)cn2)cc1Cl [Example 75, 2(1R)-(3-Chloro-4-methanesulfonyl-phenyl)-3-cyclopentyl-N-[5-(5,6-dihydro-4H-pyran-2-yl)-pyrazin-2-yl]-propionamide]",–,statistically significant (p≦0.05) decrease in blood glucose
"Cc1cc([C@@H](CC2CCCC2)C(=O)Nc2cnc([C@H](O)CO)cn2)ccc1S(C)(=O)=O [Example 58, 3-Cyclopentyl-N-[5-1(S),2-dihydroxy-ethyl]-2(R)-(4-methanesulfonyl-3-methyl)-propionamide]",–,statistically significant (p≦0.05) decrease in blood glucose
